Assay [1] relates to SW-620. Nature of the assay: Antiproliferative activity against human SW620 cells after 48 hrs by SRB assay. In kind it is functional, cell-based. Conditions: SW-620, 48 h.
A further assay concerns NCI-H460. The experiment in a line: Antiproliferative activity against human NCI-H460 cells after 48 hrs by SRB assay. It counts as functional, cell-based. Conditions: NCI-H460, 48 h.
In assay [2] the target is T1, Histone deacetylase (Homo sapiens) (UniProt Q13547+O15379+Q9UBN7+Q92769+Q9UQL6+Q8WUI4+Q9BY41+Q96DB2+P56524+Q9UKV0+Q969S8). Nature of the assay: Inhibition of HDAC in human SW620 cells assessed as acetylated histone-H3 level at 1 uM after 24 hrs by Western blotting analysis. It counts as cell-based. To be noted: SW-620. On the technique in general: In western blotting, separated proteins are transferred to a membrane and probed.

Another assay relates to MCF7. The experiment in a line: Antiproliferative activity against human MCF7 cells after 48 hrs by SRB assay. In kind it is functional, cell-based. Conditions: MCF7, 48 h. Background: In SRB staining, fixed cells bind dye roughly in proportion to their protein.
The test system of assay [3] is ASPC1. The experiment in a line: Antiproliferative activity against human AsPC1 cells after 48 hrs by SRB assay. In kind it is functional, cell-based. Conditions: ASPC1, 48 h.
Assay [4] concerns the target T1, Histone deacetylase (Homo sapiens). Nature of the assay: Inhibition of HDAC in human SW620 cells assessed as acetylated histone-H4 level at 1 uM after 24 hrs by Western blotting analysis. It counts as cell-based. To be noted: SW-620.
For assay [5], the system named is SW-620. The experiment in a line: Antiproliferative activity against human SW620 cells at 30 uM after 48 hrs by SRB assay. It counts as functional, cell-based.
Another assay has as its system PC-3. Nature of the assay: Antiproliferative activity against human PC3 cells after 48 hrs by SRB assay. It counts as functional, cell-based. Conditions: PC-3, 48 h.
In assay [6] the test system is ASPC1. Nature of the assay: Ratio of SAHA IC50 to compound IC50 for human AsPC1 cells. In kind it is functional.
For assay [7], the system named is SW-620. Nature of the assay: Ratio of SAHA IC50 to compound IC50 for human SW620 cells. It counts as functional.

Activity calls are given as the source filed them. No cut-off for these calls is given here.

In general, IC50 refers to the concentration at which inhibition is half-maximal. A higher IC50 goes with weaker potency. Take `CO/N=C1/C(=O)N(CCCCCCC(=O)NO)c2ccc(Cl)cc21`: the IC50 stood at 0.49 µM in the assay on SW-620 [1]; 0.76 µM with NCI-H460; 1.56 µM with MCF7; 0.49 µM in the assay with ASPC1 [3]; 2.33 µM in the assay with PC-3. Further, the inhibition result in assay [2] and in [4] was “Active” each time. The outcome in the assay on SW-620 [5] was Active.
As for `O=C(CCCCCCN1C(=O)/C(=N\O)c2cc(Br)ccc21)NO`, the half-inhibitory concentration (IC50) came out at 0.29 µM in the assay with SW-620 [1]; 0.97 µM in the assay on NCI-H460; 1.77 µM in the assay with MCF7; 0.08 µM in the assay on ASPC1 [3]; 2.21 µM in the assay with PC-3. The inhibition result in assay [2] and in assay [4] was “Active” throughout. Besides, in the assay with ASPC1 [6], the “Ratio IC50” value came to 45. In the assay with SW-620 [5], the result was Active.
As to `CO/N=C1/C(=O)N(CCCCCCC(=O)NO)c2ccccc21`, the IC50 with SW-620 [1] came to 0.73 µM; in the assay on NCI-H460, 0.75 µM; with MCF7 it was 1.71 µM; in the assay with ASPC1 [3], 1.22 µM; with PC-3, 1.67 µM. The inhibition entry in assay [2] and in assay [4] was “Active” each time. Moreover, the outcome in the assay with SW-620 [5] was Active.
Turning to `Cc1ccc2c(c1)/C(=N/O)C(=O)N2CCCCCCC(=O)NO`, the IC50 is 0.99 µM with SW-620 [1]; 2.09 µM in the assay on NCI-H460; 1.19 µM in the assay on MCF7; 2.44 µM in the assay with ASPC1 [3]; 0.62 µM in the assay with PC-3. Moreover, the inhibition entry in [2] and in [4] was “Active” in each case. In addition, the result with SW-620 [5] was Active.
Turning to `O=C(CCCCCCN1C(=O)/C(=N\O)c2ccccc21)NO`, the IC50 with SW-620 [1] came to 0.64 µM; in the assay with NCI-H460, 0.89 µM; in the assay on MCF7, 0.79 µM; with ASPC1 [3] it was 1.1 µM; with PC-3, 0.98 µM. Moreover, the inhibition entry in assay [2] and in assay [4] was “Active” in each case. Further, the outcome in the assay on SW-620 [5] was Active.
`CO/N=C1/C(=O)N(CCCCCCC(=O)NO)c2ccc(C)cc21`: the IC50 in the assay on SW-620 [1] was determined as 1.07 µM; with NCI-H460, 1.19 µM; in the assay with MCF7, 16.7 µM; in the assay with ASPC1 [3], 5.48 µM; with PC-3, 0.35 µM. Further, the inhibition result in assay [2] and in assay [4] was “inactive” in each case. Further, the outcome in the assay with SW-620 [5] was Active.
Take `CO/N=C1\C(=O)N(CCCCCCC(=O)NO)c2ccc([N+](=O)[O-])cc21`: the IC50 with SW-620 [1] is 1.35 µM; in the assay with NCI-H460, 14.3 µM; in the assay on MCF7 it was 0.94 µM; in the assay on ASPC1 [3] it was 0.84 µM; in the assay on PC-3, 1.69 µM. Also, the inhibition entry in assay [2] and in [4] was “inactive” in each case. Further, in the assay on SW-620 [5], the outcome was Active.
For the compound `O=C(CCCCCCN1C(=O)/C(=N\O)c2cc(Cl)ccc21)NO`, the concentration for half-maximal inhibition (IC50) in the assay with SW-620 [1] came to 0.65 µM; in the assay with NCI-H460, 0.85 µM; with MCF7 it was 0.68 µM; in the assay on ASPC1 [3] it was 1.86 µM; in the assay on PC-3, 0.85 µM. For the same compound, the inhibition entry in [2] and in assay [4] was “Active” in each case. In the assay on SW-620 [5], the result was Active.
`CO/N=C1/C(=O)N(CCCCCCC(=O)NO)c2c(Cl)cccc21`: the concentration for half-maximal inhibition (IC50) in the assay with SW-620 [1] came to 0.26 µM; in the assay with NCI-H460, 0.35 µM; in the assay with MCF7 it was 0.34 µM; with ASPC1 [3] it was 0.63 µM; with PC-3, 0.29 µM. Also, the inhibition result in [2] and in [4] was “Active” throughout.
Regarding `O=C(CCCCCCN1C(=O)/C(=N\O)c2cc([N+](=O)[O-])ccc21)NO`, the IC50 was determined as 3.39 µM in the assay on SW-620 [1]; 7.71 µM in the assay with NCI-H460; 1.34 µM in the assay on MCF7; 4.68 µM with ASPC1 [3]; 19.7 µM with PC-3. Besides, the inhibition entry in assay [2] and in assay [4] was “inactive” each time. In the assay with SW-620 [5], the outcome was Active.
On to `O=C(CCCCCCN1C(=O)/C(=N\O)c2cccc(Cl)c21)NO`, for which the IC50 is 1.05 µM with SW-620 [1]; 1.35 µM with NCI-H460; 1.74 µM with MCF7; 1.82 µM with ASPC1 [3]; 1.57 µM in the assay with PC-3. In addition, the inhibition entry in assay [2] and in [4] was “Active” throughout.
Consider `CO/N=C1/C(=O)N(CCCCCCC(=O)NO)c2ccc(Br)cc21`, for which the half-maximal inhibitory concentration (IC50) was 2.32 µM in the assay with SW-620 [1]; 2.9 µM in the assay with NCI-H460; 7.79 µM in the assay with MCF7; 1.68 µM in the assay on ASPC1 [3]; 8.91 µM in the assay with PC-3. For the same compound, the inhibition result in assay [2] and in assay [4] was “Active” in each case. In addition, in the assay with SW-620 [5], the result was Active.
For the compound `O=C(CCCCCCN1C(=O)/C(=N\O)c2cc(F)ccc21)NO`, the “Ratio IC50” value with SW-620 [7] is 30. The IC50 in the assay on SW-620 [1] is 0.11 µM; with NCI-H460 it was 1.5 µM; with MCF7 it was 1.55 µM; in the assay on ASPC1 [3] it was 1.72 µM; in the assay with PC-3, 2.73 µM. In addition, the inhibition entry in [2] and in assay [4] was “Active” throughout. Moreover, the result in the assay with SW-620 [5] was Active.
For the compound `CO/N=C1/C(=O)N(CCCCCCC(=O)NO)c2ccc(F)cc21`, the IC50 worked out at 1.11 µM in the assay with SW-620 [1]; 0.97 µM in the assay with NCI-H460; 2.42 µM with MCF7; 0.97 µM in the assay on ASPC1 [3]; 1.15 µM with PC-3. The inhibition result in assay [2] and in [4] was “Active” in each case. Further, the outcome in the assay with SW-620 [5] was Active.

For the origin of these results see ChEMBL document CHEMBL3085752, “Novel isatin-based hydroxamic acids as histone deacetylase inhibitors and antitumor agents” (Eur J Med Chem, 2013).
